One may read the IC50 as the concentration needed to halve the response being measured. Read a low IC50 as inhibition by little substance.

One test deals with T1, human CYP4F2 (Homo sapiens, UniProt P78329).
T1 construct: host or cells: Escherichia coli (membrane fraction)
T1 sequence (P78329 5-520): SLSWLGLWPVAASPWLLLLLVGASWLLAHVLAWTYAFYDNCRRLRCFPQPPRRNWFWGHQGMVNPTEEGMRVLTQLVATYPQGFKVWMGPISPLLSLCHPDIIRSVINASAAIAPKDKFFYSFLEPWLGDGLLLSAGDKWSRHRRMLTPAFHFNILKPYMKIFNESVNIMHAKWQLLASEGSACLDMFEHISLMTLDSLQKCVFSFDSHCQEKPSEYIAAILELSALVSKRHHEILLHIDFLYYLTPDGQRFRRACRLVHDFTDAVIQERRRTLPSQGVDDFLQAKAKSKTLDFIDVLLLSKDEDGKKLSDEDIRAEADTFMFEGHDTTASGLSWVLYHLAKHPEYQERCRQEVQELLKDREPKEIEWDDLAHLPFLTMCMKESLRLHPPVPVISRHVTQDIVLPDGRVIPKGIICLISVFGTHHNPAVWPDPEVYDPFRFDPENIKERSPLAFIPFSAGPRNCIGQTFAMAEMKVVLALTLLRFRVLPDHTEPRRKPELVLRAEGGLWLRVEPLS
In words: CYP4F2 inhibition test (Test Example 1). Type of test: biochemical. The following applies: Escherichia coli membrane fraction expressing human CYP4F2, 2.5 μM luciferine derivative, room temperature 60 minutes, luminescence. The procedure:
(§1) (1) Inhibition Test for Each Compound of the Present Invention Against 20-HETE Producing Enzymes (CYP4F2 and CYP4A11)
(§2) In the CYP4F2 inhibition test, the reaction solution containing each compound [final concentration of 50 mM, KPO4 (pH 7.4), 2.5 μM, luciferine derivative and 1 mM NADPH] was added to an Escherichia coli membrane fraction (100 μg/mL, protein) in which human CYP4F2 had been expressed. In the CYP4A11 inhibition test, the reaction solution containing each compound [final concentration of 100 mM, Tris-HCl (pH 7.5), 60 μM, luciferine derivative, 1.3 mM NADP^+, 3.3 mM Glucose 6-Phosphate, 3.3 mM MgCl2 and 0.4 U/mL Glucose 6-Phosphate dehydrogenase] was added to an Escherichia coli membrane fraction (100 μg/mL, protein) in which human CYP4A11 had been expressed. Following this, the membrane fraction was left to stand at room temperature for 60 minutes to perform an enzymatic reaction. After the reaction, a luciferine detection reagent was added, and the luminescence value was measured using a plate reader.
(§3) A: Luminescence value with addition of compound
(§4) B: Luminescence value without addition of compound and enzyme
(§5) C: Luminescence value without addition of compound

Another test concerns the target T2, human CYP4A11 (Homo sapiens, UniProt Q02928).
T2 construct: host or cells: Escherichia coli (membrane fraction)
T2 sequence (Q02928 5-519): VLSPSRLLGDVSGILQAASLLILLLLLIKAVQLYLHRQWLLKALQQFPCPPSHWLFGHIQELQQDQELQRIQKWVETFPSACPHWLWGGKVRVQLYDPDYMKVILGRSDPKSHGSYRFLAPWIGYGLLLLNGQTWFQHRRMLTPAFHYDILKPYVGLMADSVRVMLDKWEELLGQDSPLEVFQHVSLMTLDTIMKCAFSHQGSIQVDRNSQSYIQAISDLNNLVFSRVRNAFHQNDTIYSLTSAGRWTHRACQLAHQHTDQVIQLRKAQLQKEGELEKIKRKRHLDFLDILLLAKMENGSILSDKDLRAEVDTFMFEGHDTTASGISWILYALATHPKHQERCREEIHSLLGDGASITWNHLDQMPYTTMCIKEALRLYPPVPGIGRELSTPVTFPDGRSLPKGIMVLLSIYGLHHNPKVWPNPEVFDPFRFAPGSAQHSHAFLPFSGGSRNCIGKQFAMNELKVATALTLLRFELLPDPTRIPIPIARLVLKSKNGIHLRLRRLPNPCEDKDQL
In words: CYP4A11 inhibition test (Test Example 1). Type of test: biochemical. The following applies: Escherichia coli membrane fraction expressing human CYP4A11, 60 μM luciferine derivative, room temperature 60 minutes, luminescence. The procedure: as §1, §2, §3, §4, §5

Regarding `CS(=N)(=O)c1cccc(COc2ccc(-c3ccn[nH]3)nc2)c1` (racemic) [Example 50-1, Imino-methyl-oxo-(3-{[6-(1H-pyrazol-5-yl)pyridin-3-yl]oxymethyl}phenyl)-λ^6-sulfane], the figures for the IC50 at human CYP4F2 and on human CYP4A11 were 580 nM and 240 nM, respectively.
As for `COC(=O)N1CCC(CCOc2ccc(-c3ccn[nH]3)nc2)C(C)C1` (single isomer, unassigned) [Example 1-16-1], the IC50 on human CYP4F2 was determined as 240 nM; against human CYP4A11, 53 nM.
The corresponding values for `COC(=O)N1CCC(CCOc2ccc(-c3ccn[nH]3)nc2)C(C)C1` (single isomer, unassigned) [Example 1-16-2] are 260 nM and 57 nM.
In the case of `CS(=N)(=O)c1cccc(COc2ccc(-c3ccn[nH]3)nc2)c1` (single isomer, unassigned) [Example 50-2, Imino-methyl-oxo-(3-{[6-(1H-pyrazol-5-yl)pyridin-3-yl]oxymethyl}phenyl)-λ^6-sulfane], the IC50 came to 1200 nM on human CYP4F2 and 250 nM on human CYP4A11.
The corresponding values for `CS(=N)(=O)c1cccc(COc2ccc(-c3ccn[nH]3)nc2)c1` (single isomer, unassigned) [Example 50-3, Imino-methyl-oxo-(3-{[6-(1H-pyrazol-5-yl)pyridin-3-yl]oxymethyl}phenyl)-λ^6-sulfane] are 380 nM and 340 nM.
In the same order, the values of `CC(C)c1cccc(COc2ccc(-c3ccn[nH]3)nc2)c1` [53-3] are 140 nM and 53 nM.
The corresponding values for `CCCCCc1cccc(COc2ccc(-c3ccn[nH]3)nc2)c1` [53-4] are 32 nM and 460 nM.
On to `c1cc(COc2ccc(-c3ccn[nH]3)nc2)cc(C2CCCCC2)c1` [53-5], for which the IC50 against human CYP4F2 was determined as 130 nM; at human CYP4A11, 660 nM.
For the compound `COc1ccc(COc2ccc(-c3ccn[nH]3)nc2)cc1F` [54-3], the IC50 against human CYP4F2 is 12 nM; on human CYP4A11, 660 nM.
In the same order, the values of `Fc1ccc(COc2ccc(-c3ccn[nH]3)nc2)cc1F` [54-4] are 24 nM and 350 nM.
For `Fc1cc(COc2ccc(-c3ccn[nH]3)nc2)ccc1Cl` [54-5], the IC50 on human CYP4F2 stood at 13 nM; on human CYP4A11, 640 nM.
In the case of `Fc1ccc(COc2ccc(-c3ccn[nH]3)nc2)cc1Cl` [54-6], the IC50 stood at 29 nM at human CYP4F2 and 88 nM against human CYP4A11.
The corresponding values for `Clc1ccc(COc2ccc(-c3ccn[nH]3)nc2)cc1Cl` [54-7] are 19 nM and 170 nM.
On to `Fc1ccc(COc2ccc(-c3ccn[nH]3)nc2)cc1C(F)(F)F` [54-8], for which the IC50 at human CYP4F2 is 21 nM; against human CYP4A11, 1100 nM.
For the compound `Fc1cc(F)cc(COc2ccc(-c3ccn[nH]3)nc2)c1` [54-9], the IC50 at human CYP4F2 was found to be 130 nM; on human CYP4A11 it was 670 nM.
As to `Clc1cc(Cl)cc(COc2ccc(-c3ccn[nH]3)nc2)c1` [54-10], the IC50 on human CYP4F2 stood at 290 nM; on human CYP4A11, 68 nM.
For `COc1cc(COc2ccc(-c3ccn[nH]3)nc2)cc(OC)c1` [54-11], the results for the half-maximal inhibitory concentration (IC50) against human CYP4F2 and on human CYP4A11 were 320 nM and 690 nM, respectively.
As for `CCOc1cc(COc2ccc(-c3ccn[nH]3)nc2)cc(OCC)c1` [54-12], the values for the IC50 against human CYP4F2 and against human CYP4A11 were 640 nM and 3600 nM, respectively.
Turning to `Fc1cc(COc2ccc(-c3ccn[nH]3)nc2)cc(F)c1F` [54-13], the IC50 against human CYP4F2 was found to be 170 nM; against human CYP4A11, 480 nM.
On to `CC(C)c1ccc(COc2ccc(-c3ccn[nH]3)nc2)cc1` [54-14], for which the IC50 on human CYP4F2 was 33 nM; at human CYP4A11, 1200 nM.
On to `CC(C)(C)c1ccc(COc2ccc(-c3ccn[nH]3)nc2)cc1` [54-15], for which the IC50 against human CYP4F2 came to 440 nM; against human CYP4A11, 6300 nM.
In the same order, the values of `Fc1cccc(COc2ccc(-c3ccn[nH]3)nc2)c1` [54-16] are 22 nM and 520 nM.
In the same order, the values of `Fc1ccc(COc2ccc(-c3ccn[nH]3)nc2)cc1` [54-17] are 21 nM and 370 nM.
In the same order, the values of `Clc1cccc(COc2ccc(-c3ccn[nH]3)nc2)c1` [54-18] are 23 nM and 130 nM.
In the case of `N#Cc1cccc(COc2ccc(-c3ccn[nH]3)nc2)c1` [54-19], the IC50 amounted to 15 nM on human CYP4F2 and 390 nM on human CYP4A11.
In the same order, the values of `N#Cc1ccc(COc2ccc(-c3ccn[nH]3)nc2)cc1` [54-20] are 6.5 nM and 1600 nM.
The corresponding values for `Clc1ccc(COc2ccc(-c3ccn[nH]3)nc2)cc1` [54-21] are 9.3 nM and 650 nM.
Turning to `CC(C)C(=O)N1CCC(COc2ccc(-c3ccn[nH]3)nc2)CC1` [Example 1-2], the IC50 at human CYP4F2 was determined as 180 nM; on human CYP4A11, 530 nM.
In the same order, the values of `COC(=O)N1CCC(COc2ccc(-c3ccn[nH]3)nc2)CC1` [Example 1-3] are 73 nM and 310 nM.
As for `CC(C)OC(=O)N1CCC(COc2ccc(-c3ccn[nH]3)nc2)CC1` [Example 1-4], the IC50 was found to be 120 nM on human CYP4F2 and 510 nM against human CYP4A11.
`O=C(C1CC1)N1CCC(COc2ccc(-c3ccn[nH]3)nc2)CC1` [Example 1-5]: the IC50 on human CYP4F2 came out at 110 nM; at human CYP4A11, 530 nM.
The corresponding values for `CC(=O)N1CCC[C@@H](COc2ccc(-c3ccn[nH]3)nc2)C1` [Example 1-6] are 640 nM and 70 nM.
Turning to `CC(C)C(=O)N1CCC[C@@H](COc2ccc(-c3ccn[nH]3)nc2)C1` [Example 1-7], the figures for the IC50 on human CYP4F2 and against human CYP4A11 were 150 nM and 87 nM, respectively.
Turning to `COC(=O)N1CCC[C@@H](COc2ccc(-c3ccn[nH]3)nc2)C1` [Example 1-8], the IC50 came out at 190 nM against human CYP4F2 and 130 nM against human CYP4A11.
In the same order, the values of `CC(C)OC(=O)N1CCC[C@@H](COc2ccc(-c3ccn[nH]3)nc2)C1` [Example 1-9] are 130 nM and 210 nM.
As to `CN(C)C(=O)N1CCC[C@@H](COc2ccc(-c3ccn[nH]3)nc2)C1` [Example 1-10], the IC50 is 22 nM on human CYP4F2 and 130 nM against human CYP4A11.
The corresponding values for `CC(=O)N1CCC[C@H](COc2ccc(-c3ccn[nH]3)nc2)C1` [Example 1-11] are 180 nM and 220 nM.
In the same order, the values of `CC(C)C(=O)N1CCC[C@H](COc2ccc(-c3ccn[nH]3)nc2)C1` [Example 1-12] are 21 nM and 330 nM.
The corresponding values for `COC(=O)N1CCC[C@H](COc2ccc(-c3ccn[nH]3)nc2)C1` [Example 1-13] are 50 nM and 310 nM.
`CC(C)OC(=O)N1CCC[C@H](COc2ccc(-c3ccn[nH]3)nc2)C1` [Example 1-14]: the IC50 is 39 nM at human CYP4F2 and 330 nM on human CYP4A11.
In the same order, the values of `CN(C)C(=O)N1CCC[C@H](COc2ccc(-c3ccn[nH]3)nc2)C1` [Example 1-15] are 8 nM and 350 nM.
In the same order, the values of `CC(C)OC(=O)N1CC(S(=O)(=O)N2CCC[C@@H](COc3ccc(-c4ccn[nH]4)nc3)C2)C1` [Example 1-17] are 6.3 nM and 51 nM.
In the same order, the values of `CC(C)OC(=O)N1CC(S(=O)(=O)N2CCC[C@H](COc3ccc(-c4ccn[nH]4)nc3)C2)C1` [Example 1-18] are 3.6 nM and 82 nM.
In the case of `CC(C)CC(=O)N1CC(S(=O)(=O)N2CCC[C@H](COc3ccc(-c4ccn[nH]4)nc3)C2)C1` [Example 1-19], the values for the IC50 at human CYP4F2 and at human CYP4A11 were 3.7 nM and 190 nM, respectively.
In the same order, the values of `CC(C)CC(=O)N1CC(S(=O)(=O)N2CCC[C@@H](COc3ccc(-c4ccn[nH]4)nc3)C2)C1` [Example 1-20] are 8.6 nM and 77 nM.

For the origin of these results see US20210040062A1, “AZOLE-SUBSTITUTED PYRIDINE COMPOUND” (TAISHO PHARMACEUTICAL CO., LTD., priority 2016, published 2021).
